According to patent US20220160779A1, “COMPOSITION FOR PROMOTING CARTILAGE TISSUE REGENERATION” (National University Corporation Tokyo Medical and Dental …, priority 2019, published 2022):

What was measured:
[1] = test system: synovial MSCs; assay: Proliferation assay of synovial MSCs with recombinant protein (MTT assay); format: cell-based, human; settings: rh Activin A at ED50x10 and ED50x100 in 10% FBS and 0.5% FBS medium, days 0-7; FIGS. 5C and D
Description: Primary human synovial cells were isolated from the synovial tissues obtained from patients who underwent total knee arthroplasty (TKA), as described in Sekiya I. et al, Clin Orthop Relat Res, 2015, 473(7), pp. 2316 to 2326. That is, first, 0.5 to 1 mg of synovium obtained by incising the suprapatellar bursa was subjected to collagenase D treatment (Sigma, MO, USA, 3 hours at 37° C.) to disperse nucleated cells. Debris was removed by passing the cell dispersion through a 70 μm nylon mesh. Nucleated cells were seeded in a 15 cm dish at 5.7×10^2 cells/cm^2 and maintained and cultured in MEM-alpha medium supplemented with 10% FBS and antibiotics (Gibco, MA, USA) for 14 days. The cells were then separated from the dish in TripLE solution (Gibco) and seeded twice more in a new dish to obtain a sufficient cell count to be used in the experiments. Note that in all experiments, cells within 6 passages were used.
To evaluate the pro-proliferative activity of recombinant proteins (IL6, IL8, IL10, and Activin A), MTT assays were performed (see FIGS. 3C and 5C-E). Synovial MSCs were seeded to 1×10^3 cells/well in 96-well plates and cultured in 0.2 mL of normal growth medium 1 day before being subjected to recombinant protein treatment. On the following day, the medium was replaced with a fresh one (normal growth medium or medium with a reduced FBS concentration of 0.5% and recombinant protein added (10 times the concentration of ED50 or 100 times the concentration of ED50)). MTT assays were performed at days 0, 1, 3, 5, and 7 according to the method described in Denizot F. et al., J Immunol Methods, 1986, 89(2), pp. 271 to 277.
In addition, the present inventors tried to clarify the molecular mechanism of MSC proliferative activity by Activin A. It has been reported that the ERK and PI3K signal transduction pathways are activated for MSC proliferation (see Uomizu, M. et al, J Med Dent Sci., 2018, vol. 65, pp. 73 to 82). With the above in mind, Activin A (rh Activin A) was applied to synovial MSCs in the presence of PI3K-PKB/Akt and Erk1/Erk2, a specific inhibitor for each of these signal transduction pathways, and the cell count was measured by MTT assay.

[2] = test system: Akt; assay: Western blotting, phosphorylation of Akt in synovial MSCs; format: cell-based, human; settings: FIG. 5F
Description: Synovial MSCs were seeded in 6 cm dishes to reach a cell count of 2×10^5, and cultured in normal growth medium for 1 day. The medium was replaced with fresh medium with reduced amount of FBS (MEM-alpha, 0.5% FBS and antibiotics) and cultured for one more day. The cells were treated with rh Activin A and/or PDGF-AA (amount 3 times the ED50) for up to 30 minutes. Then, those cells were lysed with cell lysis buffer (#9803S; Cell Signaling Technology, MA) to prepare total cell lysate.
Western blotting was performed as described in Uomizu, M. et al, J Med Dent Sci. vol. 65, pp. 73 to 82. The antibodies used were purchased from Cell Signaling Technology (phospho-p44/42 (#4370), p44/42 (#9102), phospho-Akt (#9271), and Akt (#9272)).

[3] = test system: rat model of total articular cartilage loss; assay: Full thickness articular cartilage defect model; format: in vivo; settings: 4 weeks after the defect, FIG. 8
Description: Next, in order to verify the regeneration of damaged articular cartilage and the suppression of degenerative degeneration, a model of full thickness articular cartilage defect was prepared to examine the effects of rh Activin A administration. Specifically, a 1.4 mmφ total articular cartilage loss was prepared in the femoral intercondylar region using an airtome, and 180 ng of Activin A (rh Activin A) was injected intra-articularly 1 week later.

[4] = test system: Wistar rats; assay: MIA-induced arthritis rat model, incapacitance test; format: in vivo; settings: intra-articular at day 14 after MIA (400 ng/30 uL in PBS), vs control group; FIG. 9B
Description: Wistar rats (Charles River, Japan) aged 10 weeks and weighing 330 to 345 g were used for this study. The rats were divided into two groups (those to be injected with Activin A after injection of mono-iodoacetic acid (MIA), and those to be injected with vehicle after injection of MIA (control)), and subjected to the following experiments.
First, the rats were anesthetized by isoflurane inhalation, and 30 μL of physiological saline containing 1.0 mg MIA was injected into the left knee joint as described in Hoshino T. et al, BMC Musculoskelet Disord., 2018, 19(1): 291. Then, at day 14 after MIA injection, 30 μL of recombinant human Activin A (400 ng/30 μL in PBS) or PBS only as a vehicle was injected. Then, pain avoidance behavior (load asymmetry) between the left limb (MIA-injected side) and the right limb (MIA-uninjected side) was evaluated at day 0 (before injection) and days 1, 3, 7, 14, 17, 19, 21, 24, and 28 after injection.
Load asymmetry was detected by using an incapacitance tester (Linton Instrumentation, Norfolk, UK) with rats in its prismatic Plexiglas case, and the left and right hindlimbs placed on independent force plates. […]
Then, the change from the difference in the percentage of load before administration was then evaluated over time. […]

[5] = test system: proteoglycans; settings: cited from earlier work

Activin A: homodimer of two inhibin βA chains; recombinant human protein purchased from R&D Systems
proliferation of MSCs (MTT assay) [1]: significantly activated
phosphorylation of Akt ([2]; Activin A alone, MSCs serum-starved 24 hours, within 30 minutes): not detected
phosphorylation of Akt by PDGF ([2]; Activin A together with PDGF-AA): enhanced
degenerative degeneration of articular cartilage around the defect site ([3]; 180 ng intra-articular, safranin O): significantly suppressed
chondrogenic differentiation of the formed tissue [3]: no significant promotion effect
formation of fibrocartilage-like tissue in the articular cartilage defect site ([3]; intra-articular 1 week after defect (rh Activin A 180 ng/knee, rrPDGF-AA 900 ng/knee), vs PBS): promote the formation of fibrocartilage-like tissue
load on MIA-injected hindlimb (pain avoidance behavior) [4]: significant improvement
expression of proteoglycans [5]: promotes the expression of proteoglycans
